Legend:
[1] = Plasma and liver PK after single oral dose (Example 4C); format: in vivo, CD-1 mice; details: at 1 μmol/kg; single oral dose 10 mg/kg for 804a or 25 mg/kg for 804b
Protocol: Plasma samples were analyzed for 2′-methyl-2′-fluorouridine (2′-Me-2′-F-U) by LC-MS/MS. The internal standard (IS) was D3-2′-F-2′-Me-G. For protein precipitation and extraction, each plasma sample (50 μL) was treated with 500 μL of 0.2% formic acid in acetonitrile and 20 μL of the internal standard working solution. After vortexing and centrifugation, 500 μL of the sample extracts were transferred to a new plate, dried under N2 at ˜28° C. and reconstituted with 75 μL of 0.2% FA in water. The extracts were chromatographed on an Aquasil C18 column using a gradient system of 0.2% formic acid in water and acetonitrile. The analytes were detected and quantified by tandem mass spectrometry in positive ion mode on an MDS Sciex API5000 equipped with a Turbo Ionspray® interface. The calibration range was 0.500 (LLOQ) to 200 ng/mL in mouse plasma. The corresponding range for molar units is 1.92 to 769 pmol/mL.
Liver samples were analyzed for the active species 2′-methyl-2′-fluorouridine triphosphate (2′-Me-2′-F—U TP) by LC-MS/MS. […] Internal standard solution was added to the homogenate followed by neutralization with 20% ammonium hydroxide solution and addition of 500 μL 1% formic acid. The tissue samples were extracted by weak anion exchange solid phase extraction (SPE). […]

[2] = Liver TP formation and liver targeting in vivo (Example 6, Table 7); design: species or system mice and monkey
From the text: The in vitro antiviral inactivity of Z4 and Z2 is thought to reflect an inability of Huh-7 replicon cells to metabolize the prodrug moiety.

Huh-7 cells = experiment: Release of active metabolite in Huh-7 cells; format: in vitro ADME, human; details: Table 7
cathepsin A (CatA) = molecular target: T1, cathepsin A (CatA) (Homo sapiens, UniProt P10619); experiment: Hydrolysis of prodrugs by Cathepsin A; format: in vitro ADME
T1 sequence (P10619 29-326 limits assumed): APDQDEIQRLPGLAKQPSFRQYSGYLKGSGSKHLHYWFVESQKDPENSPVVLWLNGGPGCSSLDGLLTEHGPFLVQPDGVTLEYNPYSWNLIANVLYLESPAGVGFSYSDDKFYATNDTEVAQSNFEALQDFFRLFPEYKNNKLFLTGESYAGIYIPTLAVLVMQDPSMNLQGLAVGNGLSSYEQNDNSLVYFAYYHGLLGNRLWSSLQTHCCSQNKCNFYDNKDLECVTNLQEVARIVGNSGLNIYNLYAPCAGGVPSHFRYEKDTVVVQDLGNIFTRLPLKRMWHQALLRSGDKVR
T1 sequence (P10619 327-480 limits assumed): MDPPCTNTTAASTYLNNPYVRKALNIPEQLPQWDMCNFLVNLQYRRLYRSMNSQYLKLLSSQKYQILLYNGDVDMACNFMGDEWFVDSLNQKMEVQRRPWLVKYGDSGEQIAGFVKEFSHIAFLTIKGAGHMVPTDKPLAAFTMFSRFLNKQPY

Compound: CC(C)OC(=O)[C@H](C)N[P@@](=O)(OC[C@H]1O[C@@H](n2ccc(=O)[nH]c2=O)[C@](C)(F)[C@@H]1O)Oc1ccccc1 [PSI-7976, reference compound]
- Ms Plasma 2′-Me-2′-F-U AUC [1]: 0.00115 M·s
- Liver TP [2]: 310 pmol·h/g
- Huh-7 AUC0-72 (Huh-7 cells): 6527 pmol*hr/10^6cells
- Hydrolysis by CatA (cathepsin A (CatA)): hydrolyzed
- CatA hydrolysis (cathepsin A (CatA); @ 18 h, 100 μM compound, 37° C., pH 6.0): 10%

From patent US10717758B2, “D-amino acid compounds for liver disease” (priority 2012, dated 2020)
